Pest or weed control data for 15 compounds are collected here from patent US20210403435A1, “HERBICIDAL COMPOUNDS” (SYNGENTA CROP PROTECTION AG, priority 2018, published 2021).

Holding throughout (experiment): Post-emergence efficacy, glasshouse, evaluated after 13 days
Type in all cases: in vivo

Assay [1] concerns Amaranthus palmeri (AMAPA). As to conditions: Amaranthus palmeri, 312 h; post-emergence application, 500 g/Ha, evaluated after 13 days; read-out: Control of weed species AMAPA (100=total damage to plant; 0=no damage to plant). The procedure, abridged:
(§1)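 Scoring: 0 (no damage) to 100 (total damage), 13 days post-spray. Treatment applied post-emergence to plants grown 14 days in a controlled glasshouse at 24/16 °C and 65% humidity.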

In assay [2] the test system is Chenopodium album (CHEAL). The settings on record: Chenopodium album, 312 h; post-emergence application, 500 g/Ha, evaluated after 13 days; read-out: Control of weed species CHEAL (100=total damage to plant; 0=no damage to plant). The procedure, abridged:
as §1

In assay [3] the test system is Digitaria sanguinalis (DIGSA). The settings on record: Digitaria sanguinalis, 312 h; post-emergence application, 500 g/Ha, evaluated after 13 days; read-out: Control of weed species DIGSA (100=total damage to plant; 0=no damage to plant). Summed up: as §1
Assay [4] relates to Echinochloa crus-galli (ECHCG). As to conditions: Echinochloa crus-galli, 312 h; post-emergence application, 500 g/Ha, evaluated after 13 days; read-out: Control of weed species ECHCG (100=total damage to plant; 0=no damage to plant). The procedure, abridged:
as §1

The test system of another assay is Eleusine indica (ELEIN). As to conditions: Eleusine indica, 312 h; post-emergence application, 500 g/Ha, evaluated after 13 days; read-out: Control of weed species ELEIN (100=total damage to plant; 0=no damage to plant). The procedure, abridged: as §1
The subject of assay [5] is Euphorbia heterophylla (EPHHL). The settings on record: Euphorbia heterophylla, 312 h; post-emergence application, 500 g/Ha, evaluated after 13 days; read-out: Control of weed species EPHHL (100=total damage to plant; 0=no damage to plant). Summed up:
as §1

The test system of assay [6] is Ipomoea hederacea (IPOHE). As to conditions: Ipomoea hederacea, 312 h; post-emergence application, 500 g/Ha, evaluated after 13 days; read-out: Control of weed species IPOHE (100=total damage to plant; 0=no damage to plant). The procedure, abridged:
as §1

Another assay concerns Lolium perenne (LOLPE). The settings on record: Lolium perenne, 312 h; post-emergence application, 500 g/Ha, evaluated after 13 days; read-out: Control of weed species LOLPE (100=total damage to plant; 0=no damage to plant). Summed up: as §1
Another assay relates to Setaria faberi (SETFA). The settings on record: Setaria faberi, 312 h; post-emergence application, 500 g/Ha, evaluated after 13 days; read-out: Control of weed species SETFA (100=total damage to plant; 0=no damage to plant). Summed up:
as §1

As for `CC(C)(C)NC(=O)c1cc[n+](CCS(=O)(=O)O)nc1` [Compound A13], the pest or weed control at 500 g/ha in assay [1] was 100%; in [2], 100%; in assay [3] it was 80%; in assay [4], 60%; in the assay on Eleusine indica (ELEIN) it was 70%; in assay [5], 70%. In addition, the pest or weed control at 500 g/ha worked out at 60% in [6], 60% in the assay on Lolium perenne (LOLPE) and 80% in the assay on Setaria faberi (SETFA).

In the case of `C#CCNC(=O)c1cc[n+](CCS(=O)(=O)[O-])nc1` [Compound A16], the pest or weed control at 500 g/ha in [1] worked out at 100%; in assay [2] it was 90%; in [3], 70%; in assay [4] it was 90%; in the assay with Eleusine indica (ELEIN), 90%; in assay [5] it was 80%. Moreover, the pest or weed control at 500 g/ha in assay [6] came to 80%; in the assay on Lolium perenne (LOLPE) it was 60%; with Setaria faberi (SETFA), 70%.

On to `CCNC(=O)c1cc[n+](CC(C)(C)C(=O)O)nc1` [Compound A88], for which the pest or weed control at 500 g/ha was found to be 100% in assay [1]; 100% in [2]; 80% in [3]; 90% in [4]; 100% with Eleusine indica (ELEIN); 90% in assay [5]. Also, the values for the pest or weed control at 500 g/ha (in assay [6]; in the assay on Lolium perenne (LOLPE); in the assay on Setaria faberi (SETFA)) were 90%, 60% and 100%, respectively.

As for `O=C(NCc1ccccc1)c1cc[n+](CCS(=O)(=O)[O-])nc1` [Compound A20], the pest or weed control at 500 g/ha in assay [1] was found to be 100%; in assay [2] it was 100%; in [3], 60%; in [4] it was 60%; in the assay with Eleusine indica (ELEIN), 80%; in assay [5], 80%. Besides, the values for the pest or weed control at 500 g/ha (in [6]; in the assay with Lolium perenne (LOLPE); in the assay on Setaria faberi (SETFA)) were 50%, 30% and 90%, respectively.

For `CC#CCNC(=O)c1cc[n+](CCC(=O)O)nc1` [Compound A86], the pest or weed control at 500 g/ha in assay [1] was 100%; in [2], 90%; in assay [3] it was 100%; in [4], 100%; in the assay with Eleusine indica (ELEIN) it was 90%; in assay [5], 100%. In addition, the pest or weed control at 500 g/ha in assay [6] came to 20%; in the assay on Lolium perenne (LOLPE), 60%; in the assay with Setaria faberi (SETFA), 100%.

For `CC1(NC(=O)c2cc[n+](CCC(=O)O)nc2)CC1` [Compound A92], the pest or weed control at 500 g/ha came to 100% in assay [1]; 100% in [2]; 100% in assay [3]; 80% in [4]; 90% in the assay on Eleusine indica (ELEIN); 100% in [5]. For the same compound, the figures for the pest or weed control at 500 g/ha (in assay [6]; with Lolium perenne (LOLPE); in the assay with Setaria faberi (SETFA)) were 50%, 90% and 100%, respectively.

Take `O=C(c1cc[n+](CCS(=O)(=O)[O-])nc1)N1CCOCC1` [Compound A28]: the pest or weed control at 500 g/ha in assay [1] stood at 100%; in assay [2], 90%; in [3] it was 70%; in assay [4], 50%; in the assay on Eleusine indica (ELEIN), 70%; in [5] it was 80%. The pest or weed control at 500 g/ha in [6] was found to be 60%; in the assay with Lolium perenne (LOLPE), 60%; in the assay with Setaria faberi (SETFA), 70%.

For the compound `O=C(O)CC[n+]1ccc(C(=O)N2CCCC2)cn1` [Compound A26], the pest or weed control at 500 g/ha in assay [1] was found to be 100%; in [2] it was 100%; in [3], 100%; in assay [4], 90%; with Eleusine indica (ELEIN) it was 80%; in assay [5], 90%. Further, the pest or weed control at 500 g/ha in assay [6] is 40%; in the assay on Lolium perenne (LOLPE) it was 90%; in the assay on Setaria faberi (SETFA), 100%.

Regarding `COC(=O)CC[n+]1ccc(C(=O)Nc2nccs2)cn1` [Compound A42], the pest or weed control at 500 g/ha in assay [1] is 20%; in [2], 40%; in assay [3] it was 10%; in assay [4], 10%; in the assay on Eleusine indica (ELEIN), 10%; in assay [5] it was 60%. Besides, the pest or weed control at 500 g/ha (in [6]; in the assay on Lolium perenne (LOLPE); in the assay on Setaria faberi (SETFA)) was 10% each time.

As to `O=C(O)CC[n+]1ccc(C(=O)NCC(F)(F)C(F)(F)F)cn1` [Compound A97], the pest or weed control at 500 g/ha was 100% in [1]; 100% in assay [2]; 90% in [3]; 60% in assay [4]; 60% in the assay on Eleusine indica (ELEIN); 90% in [5]. The pest or weed control at 500 g/ha in [6] worked out at 30%; in the assay on Lolium perenne (LOLPE), 90%; in the assay with Setaria faberi (SETFA) it was 90%.

Turning to `C[S+]([O-])CCNC(=O)c1cc[n+](CCC(=O)O)nc1` (stereo not drawn) [Compound A103], the pest or weed control at 500 g/ha in assay [1] was determined as 90%; in assay [2] it was 90%; in [3], 90%; in assay [4], 80%; in the assay on Eleusine indica (ELEIN), 90%; in assay [5] it was 50%. Further, the values for the pest or weed control at 500 g/ha (in assay [6]; with Lolium perenne (LOLPE); with Setaria faberi (SETFA)) were 50%, 40% and 100%, respectively.

As to `CC(=O)CCNC(=O)c1cc[n+](CCC(=O)O)nc1` [Compound A130], the pest or weed control at 500 g/ha in assay [1] turned out to be 100%; in [2], 90%; in [3] it was 100%; in assay [4] it was 50%; in the assay with Eleusine indica (ELEIN), 70%; in assay [5], 20%. Besides, the pest or weed control at 500 g/ha in assay [6] came to 10%; in the assay on Lolium perenne (LOLPE) it was 70%; in the assay with Setaria faberi (SETFA) it was 100%.

With `N#CCNC(=O)c1cc[n+](CCC(=O)O)nc1` [Compound A90], the pest or weed control at 500 g/ha in assay [1] was 100%; in assay [2], 90%; in [3], 100%; in [4], 100%; in the assay on Eleusine indica (ELEIN), 100%; in assay [5] it was 100%. Further, the pest or weed control at 500 g/ha in assay [6] was found to be 80%; with Lolium perenne (LOLPE), 70%; in the assay on Setaria faberi (SETFA), 100%.

On to `CCCCNC(=O)c1cc[n+](CCS(=O)(=O)[O-])nc1` [Compound A50], for which the pest or weed control at 500 g/ha in [1] stood at 60%; in [2], 70%; in assay [3], 60%; in [4], 40%; in the assay with Eleusine indica (ELEIN), 10%; in assay [5], 40%. In addition, the pest or weed control at 500 g/ha amounted to 60% in [6], 20% in the assay on Lolium perenne (LOLPE) and 60% in the assay on Setaria faberi (SETFA).

As for `CC(CO)NC(=O)c1cc[n+](CCC(=O)O)nc1` (stereo not drawn) [Compound A123], the pest or weed control at 500 g/ha in [1] was 100%; in [2] it was 90%; in [3], 100%; in assay [4], 90%; in the assay on Eleusine indica (ELEIN), 100%; in assay [5], 90%. Also, the figures for the pest or weed control at 500 g/ha (in [6]; in the assay with Lolium perenne (LOLPE); with Setaria faberi (SETFA)) were 50%, 50% and 100%, respectively.
